These results are taken from ChEMBL document CHEMBL1139548, “Cyclic ADP-ribose analogues containing the methylenebisphosphonate linkage: effect of pyrophosphate modifications on Ca2+ release activity” (J Med Chem, 2005).

SMILES strings stand for the structures.

The assay can be described thus: Effective concentration against release of [Ca2+] ions from sea urchin egg. In kind it is functional.

For the compound `N=c1c2ncn3c2ncn1C1OC(COP(=O)(O)CP(=O)(O)OC[C@H]2OC3[C@H](O)C2O)[C@@H](O)[C@H]1O` (single isomer, unassigned), the EC50 came to 856 nM.
On to `N=c1c2ncn3c2ccn1C1OC(COP(=O)(O)CP(=O)(O)OC[C@H]2OC3[C@H](O)C2O)[C@@H](O)[C@H]1O` (single isomer, unassigned), for which the EC50 is 300 nM.

By EC50 is commonly meant the concentration that produces a half-maximal response. Lower therefore signals higher potency in that assay.
